The values below come from the supplement of paper PMC12137928.

Molecules are shown by their SMILES. Structures can show the parent of a compound that is named as a salt.

This experiment concerns HCT116. Particulars: 72 h. The method, boiled down: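 HCT116 cells were seeded at 250 per well in 1536-well plates and left 5 h to attach. CellTiter-Glo luminescence was scaled to vehicle (0%) and positive control (-100%), then pattern-corrected. IC50 and maximal efficacy came from four-parameter Hill fits.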

For the compound `CC(C)C[C@H]1C(=O)O[C@H](Cc2ccc(N3CCOCC3)cc2)C(=O)N(C)[C@@H](CC(C)C)C(=O)O[C@H](C)C(=O)N(C)[C@@H](CC(C)C)C(=O)O[C@H](Cc2ccc(N3CCOCC3)cc2)C(=O)N(C)[C@@H](CC(C)C)C(=O)O[C@H](C)C(=O)N1C` [Emodepside], the IC50 cell viability is greater than 45.8 µM (ICRF193 0 nM) and greater than 45.8 µM (ICRF193 200 nM).

Regarding `CC1CC(OC(=O)C(O)c2ccccc2)CC(C)(C)C1` (stereo not given) [Cyclandelate], the IC50 cell viability is greater than 45.8 µM (ICRF193 0 nM) and greater than 45.8 µM (ICRF193 200 nM).

`COC(=O)C1=C(C)NC(C)=C(C(=O)OCCc2ccc(N3CCN(C(c4ccccc4)c4ccccc4)CC3)cc2)C1c1cccc([N+](=O)[O-])c1` (stereo not given) [Watanidipine]: the IC50 cell viability by setting is: (ICRF193 0 nM) greater than 45.8 µM; (ICRF193 200 nM) greater than 45.8 µM.

Take `CC(C)[C@H]1CC[C@H](C(=O)N[C@H](Cc2ccccc2)C(=O)O)CC1` [Nateglinide]: the IC50 cell viability was greater than 45.8 µM (ICRF193 0 nM) and greater than 45.8 µM (ICRF193 200 nM).

On to `NS(=O)(=O)c1cc2c(cc1Cl)NC(CC1CCCC1)NS2(=O)=O` (stereo not given) [Cyclopenthiazide], for which the IC50 cell viability by setting is: (ICRF193 0 nM) greater than 45.8 µM; (ICRF193 200 nM) greater than 45.8 µM.

Take `CCCC1C(=O)N2C(N(C)C)=Nc3ccc(C)cc3N2C1=O` (stereo not given) [Azapropazone]: the IC50 cell viability (ICRF193 0 nM) is greater than 45.8 µM and the IC50 cell viability (ICRF193 200 nM) was greater than 45.8 µM.

Turning to `NCCC[C@H](NC(=O)[C@@H]1CCCN1C(=O)[C@@H]1CSSC[C@H](N)C(=O)N[C@@H](Cc2ccc(O)cc2)C(=O)N[C@@H](Cc2ccccc2)C(=O)N[C@@H](CCC(N)=O)C(=O)N[C@@H](CC(N)=O)C(=O)N1)C(=O)NCC(N)=O` [ORNIPRESSIN], the IC50 cell viability (ICRF193 0 nM) is greater than 45.8 µM and the IC50 cell viability (ICRF193 200 nM) was greater than 45.8 µM.

For the compound `CC(C(O)c1ccccc1)N(C)C/C=C/c1ccccc1` (stereo not given) [Cinnamedrine], the IC50 cell viability reads like this: (ICRF193 0 nM) greater than 45.8 µM; (ICRF193 200 nM) greater than 45.8 µM.

Take `O=S(=O)(c1cccc2cnccc12)N1CCCNCC1` [Fasudil]: the IC50 cell viability is greater than 45.8 µM (ICRF193 0 nM) and greater than 45.8 µM (ICRF193 200 nM).

Consider `NS(=O)(=O)c1cc(Cl)c(Cl)c(S(N)(=O)=O)c1` [Diclofenamide], for which the IC50 cell viability by setting is: (ICRF193 0 nM) greater than 45.8 µM; (ICRF193 200 nM) greater than 45.8 µM.

As to `N=C(N)NC(=O)Cc1c(Cl)cccc1Cl` [Guanfacine hydrochloride], the IC50 cell viability (ICRF193 0 nM) was greater than 45.8 µM and the IC50 cell viability (ICRF193 200 nM) was greater than 45.8 µM.

As for `CC1(C)NC(=O)N(c2ccc([N+](=O)[O-])c(C(F)(F)F)c2)C1=O` [Nilutamide], the IC50 cell viability (ICRF193 0 nM) is greater than 45.8 µM and the IC50 cell viability (ICRF193 200 nM) is greater than 45.8 µM.

For the compound `CC1(C)S[C@@H]2[C@H](NC(=O)C(c3ccccc3)S(=O)(=O)O)C(=O)N2[C@H]1C(=O)O` (stereo not given in full) [Sulbenicillin disodium], the IC50 cell viability reads like this: (ICRF193 0 nM) greater than 45.8 µM; (ICRF193 200 nM) greater than 45.8 µM.

With `CN(CCCN1c2ccccc2CCc2ccccc21)CC(=O)c1ccc(Cl)cc1` [Lofepramine hydrochloride], the IC50 cell viability is, setting by setting: (ICRF193 0 nM) greater than 45.8 µM; (ICRF193 200 nM) greater than 45.8 µM.

Take `Cc1c(N(C)C)c(=O)n(-c2ccccc2)n1C` [4-Dimethylaminoantipyrine]: the IC50 cell viability by setting is: (ICRF193 0 nM) greater than 45.8 µM; (ICRF193 200 nM) greater than 45.8 µM.

With `CCCC(O)C(CC)CO` (stereo not given) [2-Ethyl-1,3-hexanediol], the IC50 cell viability runs as follows: (ICRF193 0 nM) greater than 45.8 µM; (ICRF193 200 nM) greater than 45.8 µM.

`CC(C)N(CCCCOCC(=O)NS(C)(=O)=O)c1cnc(-c2ccccc2)c(-c2ccccc2)n1` [NS-304] gave an IC50 cell viability (ICRF193 0 nM) greater than 45.8 µM and an IC50 cell viability (ICRF193 200 nM) greater than 45.8 µM.

As to `CCc1cc(C(N)=S)ccn1` [Ethionamide], the IC50 cell viability is, setting by setting: (ICRF193 0 nM) greater than 45.8 µM; (ICRF193 200 nM) greater than 45.8 µM.

In the case of `C#CCN[C@@H]1CCc2ccccc21` [Rasagiline mesylate], the IC50 cell viability was greater than 45.8 µM (ICRF193 0 nM) and greater than 45.8 µM (ICRF193 200 nM).

As to `NS(=O)(=O)c1cc2c(cc1Cl)NC(Cc1ccccc1)NS2(=O)=O` (stereo not given) [Benzylhydrochlorothiazide], the IC50 cell viability reads like this: (ICRF193 0 nM) greater than 45.8 µM; (ICRF193 200 nM) greater than 45.8 µM.
